Laboratory results published in patent US12338198B2, “Cancer cell growth inhibiting composition and processed food” (HAGIHARA FARM PRODUCTION INSTITUTE CO., LTD., priority 2019, dated 2025).

System: Jurkat cells
Assay: Effect of compounds on growth of human leukemic T-cell line Jurkat cells (Trypan Blue live cell count)
Assay type: cell-based
Conditions: for IC50: Homo sapiens, growth of Jurkat cells, viable cell count; for cancer cell growth inhibiting effect compared with phytol: Jurkat cells, 24-72 hours
Protocol: Human leukemic T-cell line Jurkat cells were obtained from the RIKEN BioResource Research Center (Tsukuba-shi, Ibaraki Prefecture). The cells were cultured in RPMI1640 medium (Wako Pure Chemical Industries, Ltd., Osaka-shi, Osaka Prefecture) containing 10% fetal bovine serum (Thermo Fisher Scientifics, K.K., MA, USA), 100 U/mL penicillin and 100 μg/mL spletomycin (both Life Technologies, Carlsbad, CA, USA) at 37° C. in a 95% air-5% CO2 environment.
Jurkat cells were adjusted to 1×10^5 cells/mL and seeded in 24-well multi-plates (Thermo Fisher Scientifics K. K.) by 500 μL/well. After seeding, phytol, aminophytol, amidophytol, methylaminophytol, hexylaminophytol, and acetamidophytol were adjusted with distilled water to a final concentration of 10 μM, 25 μM, and 50 μM respectively, and then added. Note that no compound is added to a control. After adding respective compounds, the cells were stained with Tripan Blue (Life Technologies) after 24, 48, and 72 hours, and live cells were counted using a hemocytometer.
A horizontal axis represents culture time (hours) and a vertical axis represents the number of viable cells (×10^5 cells/mL). “Cont” in the figures represents the control, and “10 μM,” “25 μM,” and “50 μM” represent concentration. FIG. 1 is for phytol; FIG. 2 is for aminophytol; FIG. 3 is for amidophytol; FIG. 4 is for monomethylaminophytol; FIG. 5 is for monohexylaminophytol; and FIG. 6 is for acetamidophytol.

[1] = after 24 hours at a concentration of 25 μM

SMILES | growth of Jurkat cells (cancerous cells) (10, 25, 50 μM, 24, 48, 72 hours, concentration-dependence observed) | IC50 | viable cells (after 72 hours at a concentration of 50 μM) | cancer cell growth inhibiting effect compared with phytol (10, 25, 50 μM) | viable cells [1] | viable cells (at a concentration of 25 μM) | viable cells (at a concentration of 50 μM)
C/C(=C\CO)CCC[C@H](C)CCC[C@H](C)CCCC(C)C [phytol, reference compound] | inhibited the growth | 29.8 µM | viable cells could still be identified |  |  |  | 
C/C(=C\C(N)=O)CCC[C@H](C)CCC[C@H](C)CCCC(C)C (racemic) [amidophytol, (E)-3,7,11,15-tetramethylhexadec-2-enamide] |  | 9.6 µM |  | more effect than phytol | few cells survived |  | 
C/C(=C\CN)CCC[C@H](C)CCC[C@H](C)CCCC(C)C (racemic) [aminophytol, (E)-3,7,11,15-tetramethylhexadec-2-en-1-amine] |  | 3.8 µM |  | more effect than phytol | few cells survived |  | 
CCCCCCNC/C=C(\C)CCC[C@H](C)CCC[C@H](C)CCCC(C)C (racemic) [monohexylaminophytol, (E)-N-hexyl-3,7,11,15-tetramethylhexadec-2-en-1-amine] |  | 8.5 µM |  | more effect than phytol | few cells survived |  | 
CC(=O)NC/C=C(\C)CCC[C@H](C)CCC[C@H](C)CCCC(C)C (racemic) [acetamidophytol, (E)-N-(3,7,11,15-tetramethylhexadec-2-en-1-yl)acetamide] |  | 21.2 µM |  | more effect than phytol |  | viable cells could still be identified | few cells survived
CNC/C=C(\C)CCC[C@H](C)CCC[C@H](C)CCCC(C)C (racemic) [monomethylaminophytol, (E)-N,3,7,11,15-pentamethylhexadec-2-en-1-amine] |  | 6.6 µM |  | more effect than phytol | few cells survived |  | 
